Test results: patent publication US11760773B2, “Small molecule drug conjugates of gemcitabine monophosphate” (MaveriX Oncology, Inc., priority 2018, dated 2023)

Tests used:
Rat plasma stability = format: in vitro ADME; details: 3 μM, 37° C.
Method: (§1) Method: Assay was carried out in 96-well microtiter plates. Compounds were incubated in replicates (n=2) for 0, 5, 15, 30, and 45 minutes at 37° C. Reaction mixtures (20 μL) contained a final concentration of 3 μM test compound in fresh Sprague Dawley rat plasma. Eucatropine is a positive control to verify assay performance. Linear regression of semi-log plot of % remaining of compounds versus time used to determine the half-life t1/2 values.

[1] = CD-1 mouse plasma stability; format: in vitro ADME; details: 3 μM, 37° C.
Method: as §1, with “CD-1 mouse” for “Sprague Dawley rat”, “included as” for “is a”

[2] = Mouse plasma stability (Compound 1); format: in vitro ADME; details: 37° C.
Human plasma stability = format: in vitro ADME; details: 3 μM, 37° C.
Method: as §1, with “human” for “fresh Sprague Dawley rat”, “included as” for “is a”, “t½” for “t1/2”

[3] = Plasma PK of Int 3-3 in CD-1 mice (study c); format: in vivo; details: after iv Int 3-3 8.8 mg/kg
Method: Objectives: to determine the plasma pharmacokinetics of Int 3-3 following a single intravenous infusion of Int 3-3 at 8.83 mg/kg in CD-1 mice
PK measurements: compare PK parameters C0, CL, Vdss, Cmax, tmax, t1/2, AUC(0-t), AUC(0-inf), MRT(0-t), MRT(0-inf) for Int 3-3.

[4] = Metabolic stability in liver hepatocytes, mouse; format: in vitro ADME
[5] = Metabolic stability in liver hepatocytes, monkey; format: in vitro ADME
[6] = Metabolic stability in liver hepatocytes, human; format: in vitro ADME
[7] = Metabolic stability in liver hepatocytes, dog; format: in vitro ADME
Rat liver S9 stability = format: in vitro ADME
[8] = Monkey liver S9 stability; format: in vitro ADME
Mouse liver S9 stability = format: in vitro ADME
Dog liver S9 stability = format: in vitro ADME
Human liver S9 stability = format: in vitro ADME
[9] = Comparative plasma PK of Compound 1 versus Int 1-4 in male CD-1 mice (study b); format: in vivo
Method: Objectives: to compare the plasma pharmacokinetics and stability of Compound 1 with its non-phosphorylated SMDC analog (Int 1-4) and in plasma following a single intravenous infusion administration of Compound 1 at 11.6 mg/kg and 23.2 mg/kg with Int 1-4 (formulation F1 & F2) at 10.0 mg/kg in male CD-1 mice
PK measurements: compare PK parameters C0, CL, Vdss, Cmax, tmax, t1/2, AUC(0-t), AUC(0-inf), MRT(0-t), MRT(0-inf) for Compound 1 and Int 1-4

[10] = negative value indicates compound is stable

## CC1CC(OC(=O)C(O)c2ccccc2)CC(C)(C)N1C (centres unmarked) [Eucatropine, reference compound]
Rat plasma stability; Sprague Dawley rat plasma
  Slope Mean ± SE: −0.007881 ± 0.00112
Rat plasma stability; fresh Sprague Dawley rat plasma, read-out: t1/2 Mean ± SE
  half-life at 3 μM: 87.9 ± 12.5 min
[1]; in min-1 (unit assumed)
  Slope Mean ± SE: −0.03084 ± 0.003016
[1]; fresh CD-1 mouse plasma, read-out: t1/2 Mean ± SE
  half-life at 3 μM: 22.5 ± 2.2 min
[2]; 3 μM
  Slope Mean ± SE: −0.03084 ± 0.003016
[2]; CD-1, 3 μM, read-out: t1/2 Mean ± SE
  half-life at 3 μM: 22.5 ± 2.2 min
Human plasma stability; read-out: t1/2 Mean ± SE
  half-life at 3 μM: 15.1 ± 1.1 min
Human plasma stability; semi-log plot of % remaining versus time, in min-1 (unit assumed)
  Slope Mean ± SE: −0.04591 ± 0.003277

## [2H]C([2H])([2H])Oc1cc(OC([2H])([2H])[2H])c2oc(COC(=O)Nc3ccn([C@@H]4O[C@H](CO)[C@@H](O)C4(F)F)c(=O)n3)cc2c1 [Int 3-3]
[3]
  AUC0-inf/AUC0-last: 101%
[3]; mouse
  AUC(0-t): 3480 ng·h/mL
  C0: 45900 ng/mL
  clearance: 43.3 mL/min/kg
  half-life: 74.4 min
[3]; mouse, read-out: AUC0-inf
  AUC(0-inf): 3510 ng·h/mL
[3]; mouse, read-out: MRT0-inf
  MRT inf: 46 min
[3]; mouse, read-out: MRT0-last
  MRT last: 42.2 min
[3]; mouse, read-out: Vdss
  Vd: 1.83 L/kg

## C=CCN1CC[C@]23c4c5ccc(O)c4O[C@H]2C(=O)CC[C@@]3(O)[C@H]1C5 [Naxalone]
[4]
  Slope Mean ± SE: −0.01828 ± 0.000731
  t1/2 mean ± SE: 37.9 ± 1.5 min
[5]
  Slope Mean ± SE: −0.02948 ± 0.001002
[5]; [10]
  t1/2 mean ± SE: 23.5 ± 0.8 min
[6]
  Slope Mean ± SE: −0.01335 ± 0.000878
  t1/2 mean ± SE: 51.9 ± 3.4 min
[7]
  Slope Mean ± SE: −0.01302 ± 0.001119
[7]; [10]
  t1/2 mean ± SE: 53.2 ± 4.6 min

## COc1cc2ccc(=O)oc2cc1O [Scopoletin, reference compound]
Rat liver S9 stability; rat liver S9
  Slope Mean ± SE: −0.03134 ± 0.00198
Rat liver S9 stability; rat liver S9, read-out: t1/2 Mean ± SE
  half-life: 22.1 ± 1.4 min
Rat liver S9 stability; rat, liver S9, rat liver S9, read-out: CLint Mean ± SE
  microsomal CLint: 12.5 ± 0.792 µL/min/mg
[8]; monkey liver S9
  Slope Mean ± SE: −0.1391 ± 0.01406
[8]; monkey liver S9, read-out: t1/2 Mean ± SE
  half-life: 5 ± 0.5 min
[8]; monkey, liver S9, monkey liver S9, read-out: CLint Mean ± SE
  microsomal CLint: 55.6 ± 5.62 µL/min/mg
Mouse liver S9 stability; mouse liver S9
  Slope Mean ± SE: −0.06127 ± 0.006525
Mouse liver S9 stability; mouse liver S9, read-out: t1/2 Mean ± SE
  half-life: 11.3 ± 1.2 min
Mouse liver S9 stability; mouse, liver S9, mouse liver S9, read-out: CLint Mean ± SE
  microsomal CLint: 24.5 ± 2.61 µL/min/mg
Dog liver S9 stability; dog liver S9
  Slope Mean ± SE: −0.03892 ± 0.001665
Dog liver S9 stability; dog liver S9, read-out: t1/2 Mean ± SE
  half-life: 17.8 ± 0.8 min
Dog liver S9 stability; dog, liver S9, dog liver S9, read-out: CLint Mean ± SE
  microsomal CLint: 15.6 ± 0.666 µL/min/mg
Human liver S9 stability; human liver S9, read-out: t1/2 Mean ± SE
  half-life: 8.2 ± 0.2 min
Human liver S9 stability; human, liver S9, human liver S9, read-out: CLint Mean ± SE
  microsomal CLint: 33.8 ± 0.92 µL/min/mg

## Gemcitabine monophosphate
[9]; after iv Compound 1 11.6 mg/kg
  AUC0-last: 0.840 ng·h/mL
  Cmax: 33.6 ng/mL
  MRT0-last: 1.79 min
  Tmax: 1.5 min
[9]; after iv Compound 1 23.2 mg/kg
  AUC0-last: 1.18 ng·h/mL
  AUC(0-inf): 1.44 ng·h/mL
  Cmax: 30.4 ng/mL
  MRT0-inf: 3.3 min
  MRT0-last: 2.38 min
  Tmax: 1.5 min
  t1/2: 1.64 min
